Reference: patent publication US20110097365A1, “S-TRIAZINE DERIVATIVES CONTAINING AT LEAST TWO PARTICULAR SILANE AMINOBENZOATE OR SILANE AMINOBENZAMIDE GROUPS; PHOTOPROTECTIVE COSMETIC COMPOSITIONS CONTAINING THESE DERIVATIVES; USES OF THE SAID S-TRIAZINE DERIVATIVES” (L'OREAL, priority 2007, published 2011)
Where “and” joins values, the source holds several entries; their conditions need not be identical. Equal values may be shown once.

Assays:
Type in all cases: physicochemical
[1] = UV absorption of the derivatives in DMSO/ethanol; conditions: for E1% / εmax: at the λmax of the same block
[2] = Granulometric measurements by SLS (Mastersizer)
Protocol: (§1) Two micronizations of these compounds 1 and 2 are performed by milling in oily medium (oil: phenylethyl benzoate—X-Tend 226 from ISP) by means of a mill without addition of dispersant, using a Dispermat ball mill.
(§2) • Dispermat AE 06-C1 disperser-mill (Brant Industrie) • Dispersion: slurries containing 17% R056336A and 49% F17845 (difference in oil uptake) ˜3000 rpm ˜15 minutes • Milling under rapid conditions (30 minutes at 4500 rpm), not optimized (water-cooling circuit not operational) with 0.7-1.2 mm […] balls.
The granulometric results obtained by SLS using a Mastersizer granulometer reveal a very marked difference in particle size between compound 1 and compound 2, with particle sizes d(0.5), respectively, of 0.118 μm as opposed to 851 μm.

[3] = Macroscopic observation of 1% oily dispersions in phenylethyl benzoate; conditions: 1% by weight in phenylethyl benzoate (X-Tend 226), after about one week
Protocol: as §1, §2
Two oily dispersions in phenylethyl benzoate (X-Tend 226) comprising 1% by weight, respectively, of compound 1A or 2A are then prepared.

Structure (SMILES)	λmax [1]	E1% [1]	εmax [1]	particle size d(0.5) ([2]; after milling in phenylethyl benzoate without dispersant, SLS Mastersizer) [μm]	dispersibility in the oil phenylethyl benzoate ([2]; overall conclusion, compared with compound 2)	macroscopic stability of dispersion [3]
CCCCOC(=O)c1ccc(Nc2nc(Nc3ccc(C(=O)OC[Si](C)(C)C)cc3)nc(Nc3ccc(C(=O)OC[Si](C)(C)C)cc3)n2)cc1 [Example 2, 2,4-bis(methyltrimethylsilyl 4′-aminobenzoate)-6-(butyl 4″-aminobenzoate)-s-triazine]	313 nm	1660	104 560	–	–	–
COc1ccc(-c2nc(Nc3ccc(C(=O)OC[Si](C)(C)C)cc3)nc(Nc3ccc(C(=O)OC[Si](C)(C)C)cc3)n2)cc1 [Example 4, 2,4-bis(methyltrimethylsilyl 4′-aminobenzoate)-6-(para-methoxyphenyl)-s-triazine]	303 nm	1313	82 700	–	–	–
C[Si](C)(C)COC(=O)c1ccc(Nc2nc(Nc3ccc(C(=O)OC[Si](C)(C)C)cc3)nc(Nc3ccc(C(=O)OC[Si](C)(C)C)cc3)n2)cc1 [Example 1, 2,4,6-tris(methyltrimethyl-silyl 4′-aminobenzoate)-s-triazine]	314 nm	1700	126 660	0.118	markedly superior dispersibility	–
C[Si](C)(C)CNC(=O)c1ccc(Nc2nc(Nc3ccc(C(=O)NC[Si](C)(C)C)cc3)nc(Nc3ccc(C(=O)NC[Si](C)(C)C)cc3)n2)cc1 [Example 7, 2,4,6-tris(methyltrimethyl-silyl 4′-aminobenzamide)-s-triazine]	303 nm	1123	83 330	–	–	–
CC12CCC(/C(=C\c3ccc(Nc4nc(Nc5ccc(C(=O)OC[Si](C)(C)C)cc5)nc(Nc5ccc(C(=O)OC[Si](C)(C)C)cc5)n4)cc3)C1=O)C2(C)C (stereo not shown) [Example 6, 2,4-bis(methyltrimethylsilyl 4′-aminobenzoate)-6-(4″-aminobenzylidenecamphor)-s-triazine]	313 nm and 345 nm	–	–	–	–	–
CC(C)(C)CC(C)(C)c1cc(Cc2cc(C(C)(C)CC(C)(C)C)cc(-n3nc4ccccc4n3)c2O)c(O)c(-n2nc3ccccc3n2)c1 [Compound 2, methylenebis(benzo-triazolyl)tetramethylbutylphenol]	–	–	–	–	–	totally insoluble
COc1ccc(-c2nc(Nc3ccc(C(=O)OC[Si](C)(C)C)c(O)c3)nc(Nc3ccc(C(=O)OC[Si](C)(C)C)c(O)c3)n2)cc1 [Example 5, 2,4-bis(methyltrimethylsilyl 4′-aminosalicylate)-6-(para-methoxyphenyl)-s-triazine]	329 nm and 316 nm and 298 nm	927 and 1066 and 1030	61 370 and 70 570 and 68 190	–	–	–
C[Si](C)(C)COC(=O)c1ccc(Nc2nc(Nc3ccc(C(=O)OC[Si](C)(C)C)c(O)c3)nc(Nc3ccc(C(=O)OC[Si](C)(C)C)c(O)c3)n2)cc1O [Example 3, 2,4,6-tris(methyltrimethyl-silyl 4′-aminosalicylate)-s-triazine]	326 nm and 300 nm	1456 and 938	107 610 and 74 400	–	–	–
